According to BigSolDB 2.1:

C1=Cc2cccc3cccc1c23
Conditions | solubility (mole fraction)
in ethanol, 278.1 K | 0.00462
in ethanol, 283.53 K | 0.00579
in ethanol, 288.25 K | 0.00709
in ethanol, 293.25 K | 0.00891
in ethanol, 298.2 K | 0.0108
in ethanol, 303.2 K | 0.0133
in ethanol, 308.2 K | 0.0165
in ethanol, 313.05 K | 0.0197
in ethanol, 318.25 K | 0.0245
in ethanol, 323.15 K | 0.0296
in isopropanol, 278.3 K | 0.00469
in isopropanol, 283.07 K | 0.00592
in isopropanol, 288.33 K | 0.0077
in isopropanol, 293.2 K | 0.00967
in isopropanol, 298.07 K | 0.012
in isopropanol, 303.3 K | 0.0152
in isopropanol, 308.05 K | 0.0189
in isopropanol, 312.95 K | 0.0236
in isopropanol, 318.4 K | 0.0302
in isopropanol, 323.25 K | 0.0372
in n-butanol, 278.25 K | 0.0101
in n-butanol, 283.05 K | 0.0122
in n-butanol, 288.05 K | 0.0154
in n-butanol, 293.25 K | 0.019
in n-butanol, 298.25 K | 0.0237
in n-butanol, 303.15 K | 0.029
in n-butanol, 308.1 K | 0.0349
in n-butanol, 313.2 K | 0.0427
in n-butanol, 318.05 K | 0.0525
in n-butanol, 323.05 K | 0.0639
in toluene, 278.47 K | 0.104
in toluene, 283.33 K | 0.122
in toluene, 288.1 K | 0.142
in toluene, 293.15 K | 0.167
in toluene, 298.23 K | 0.194
in toluene, 303.15 K | 0.224
in toluene, 307.95 K | 0.256
in toluene, 312.95 K | 0.299
in toluene, 318.3 K | 0.346
in toluene, 323.2 K | 0.398
